Assay results as given in patent publication US10961197B2, “Metal chelators for imaging, therapeutics, and bioanalysis” (THE BOARD OF TRUSTEES OF THE UNIVERSITY OF ILLINOIS, priority 2016, dated 2021).

What was measured:
Format in all cases: physicochemical
[1] = EDTA challenge assay of kinetic inertness (luminescence over time, 5 nM complex, 1 mM EDTA); settings: for stability in EDTA solution: for 2 days
Description: FIG. 2 is a graph of the relative kinetic stability as measured by the luminescence signal intensity at ca. 545 nm (for Tb(III) complexes) or 620 nm (for Eu(III) complexes) for various dilute aqueous solutions (5 nM) of the indicated metal complexes in TBS buffer containing 1 mM EDTA.
FIG. 3 is a graph of the relative kinetic stability as measured by the luminescence signal intensity at ca. 545 nm (for Tb(III) complexes) or 620 nm (for Eu(III) complexes) for various dilute aqueous solutions (5 nM) of the indicated metal complexes in TBS buffer containing 1 mM EDTA.
The cyclic TTHA-based complexes Tb-12a and Eu-12b were still more than 40% in emissive after 48 h.
(§1) Complete metallation, as judged by formation of green Tb luminescence, occurred in less than 15 min. The resulting complex was then diluted to a final concentration of 5 nM in buffer solution that contained a much higher concentration (1 mM) of a competing chelator, ethylene diamine tetraacetic acid (EDTA). By observing the metal luminescence over time, the kinetic inertness of compound iii relative to that of other known chelators was assessed.

[2] = Quantum yield of emission of lanthanide complexes in water / aqueous buffer; settings: Tb complex
Description: A cyclohexyl analog of the metal chelator was prepared with methylenecarboxylate pendant groups and a sensitizing chromophore (carbostyril 124) appended to one of the central nitrogens (compound iii). The synthesis of compound iii was remarkably efficient (8 steps, 45% overall yield). Moreover, it can be scaled up and altered to prepare different derivatives, as evidenced by the incorporation of a single chromophore into the structure. Given its position in the molecule, the amide oxygen between the cyclohexyl nitrogen and the chromophore may coordinate to a bound Tb ion. This coordination in turn would allow for efficient sensitization of metal luminescence and result in a high quantum yield of emission. […] The quantum yield of compound iii exceeded 50% in water, making it among the most efficient luminescent Tb complexes known.
All of the complexes prepared show characteristic lanthanide emission spectra. UV-Vis absorption spectra closely matched those of previously reported carbostyril-sensitized complexes. […] The efficient emission and lack of bound waters support the hypothesis that inner substitution positions the sensitizer such that it remains coordinated to the metal center.

[3] = Metallation of chelator with Tb in buffer at 1:1 ratio, judged by green Tb luminescence; settings: 1:1 ratio in buffer
Description: as §1

Molecule	time to equilibrate with the EDTA solution ([1]; Tb complex) [h]	stability in EDTA solution [1]	quantum yield [2]	time to complete metallation [3]	time to complete dissociation from Tb(III) [1]
Cc1cc(=O)[nH]c2c(NC(=O)CN(CCN(CC(=O)O)[C@@H]3CCCC[C@H]3N(CC(=O)O)CC(=O)O)[C@H]3CCCC[C@@H]3N(CC(=O)O)CC(=O)O)cccc12 [Compound iii]	2 to 3	remains essentially stable	exceeded 50%	less than 15 min	–
O=C(O)CN1CCN(CC(=O)O)CCN(CC(=O)O)CCN(CC(=O)O)CC1 [DOTA, 1,4,7,10-tetraazacyclododecane-1,4,7,10-tetraacetic acid]	–	remains essentially stable	–	–	–
O=C(O)CN(CCN(CC(=O)O)CC(=O)O)CCN(CC(=O)O)CC(=O)O [DTPA, diethylamine triamine pentaacetic acid]	–	–	–	–	ca. 10 h
DOTAm	–	remains essentially stable	–	–	–
